Data: US10421751B2, “Dihydro-2H-benzo[b][1,4]oxazine sulfonamide and related compounds for use as agonists of RORγ and the treatment of disease” (Lycera Corporation, priority 2015, dated 2019)
pEC50: −log10 of the molar value.

Key:
RORγ-LBD = molecular target: T1, RORγ-LBD (Homo sapiens, UniProt P51449); test: RORγ-Ligand Binding Domain (LBD) TR-FRET Assay; type: biochemical; settings: for pEC50: in presence of 2 μM RORγ antagonist ursolic acid, SRC1 coactivator peptide; for TR-FRET Assay Max Response: upper plateau of 4-parameter fit, signal in the absence of ursolic acid or test compound set as 100
T1 construct: made in house; host or cells: SF9 cells, baculovirus expression system; used as diluted lysate
T1 sequence (P51449 269-508 limits assumed): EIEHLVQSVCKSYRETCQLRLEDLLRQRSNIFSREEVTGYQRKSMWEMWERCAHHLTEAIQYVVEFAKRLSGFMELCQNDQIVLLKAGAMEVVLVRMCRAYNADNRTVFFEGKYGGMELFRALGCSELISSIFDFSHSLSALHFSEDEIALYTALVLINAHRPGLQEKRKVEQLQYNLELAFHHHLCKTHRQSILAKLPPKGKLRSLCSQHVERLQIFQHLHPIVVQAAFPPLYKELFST
Procedure: HIS-tagged RORγ-LBD protein was expressed in SF9 cells using a baculovirus expression system. The lysate was diluted in assay buffer (50 mM Tris pH 7.0, 50 mM KCl, 1 mM EDTA, 0.1 mM DTT, 0.01% BSA) to obtain RORγ-LBD final concentration of ˜3 nM in a 384-well assay plate (need to titrate for each batch of protein).
A stock of biotinylated-LXXLL peptide from coactivator SRC1 (Biotin-[…]) was prepared in assay buffer and added to each well (200 nM final concentration). A solution of Europium tagged anti-HIS antibody (0.6 nM final concentration) and APC-conjugated streptavidin (30 nM final concentration) were also added to each well. RORγ antagonist ursolic acid was also included at a final concentration of 2 μM. Compounds were diluted in DMSO and further diluted in assay buffer with a final DMSO concentration at 1%.
The final assay mixture was incubated overnight at 4° C. or 2 hours at room temperature, and the fluorescence signal was measured on an Envision plate reader: (Excitation filter=340 nm; APC emission=665 nm; Europium emission=615 nm; dichroic mirror=D400/D630; delay time=100 μs, integration time=200 μs). 50% Effective concentration (EC50) values for test compounds were calculated from the quotient of the fluorescence signal at 665 nm divided by the fluorescence signal at 615 nm. The quotient of the fluorescence signals in the absence of ursolic acid or test compound is set as 100. Max Response is defined as the upper plateau in the signal as determined by line-fit using a 4-parameter logistic model in PRISM (GraphPad).

Gal4-RORγ-LBD = molecular target: T2, Gal4-RORγ-LBD (Homo sapiens, UniProt P51449); test: Gal4-RORγ Luciferase Reporter Assay in HEK-293T Cells; type: cell-based; settings: for pEC50: HEK-293 cells, in presence of 2 μM ursolic acid, overnight incubation, read-out: Ga14-RORγ Assay EC50; for Ga14-RORγ Assay Max Response: upper plateau of 4-parameter fit, luciferase signal in the absence of ursolic acid or test compound defined at 100
T2 construct: expressed in transfected cells; pcDNA3.1neo plasmid, co-transfected with pGL4.31 Gal4-luciferase reporter
T2 sequence (P51449 269-508 limits assumed): T1 sequence (P51449 269-508 limits assumed)
Procedure: In the following protocol, HEK-293 cells were transfected with a construct comprising the Gal4 DNA binding domain fused to the ligand binding domain of RORγ (Gal4-RORγ-LBD) in a pcDNA3.1neo plasmid, and also with a reporter construct comprising pGL4.31 Gal4-luciferase (Promega). Control cells were prepared similarly using empty pcDNA3.1neo and pGL4.31 vectors.
Trans-IT reagent (Mirus, 60 μL) at room temperature was added drop wise to OptiMEM (Invitrogen, 1.5 ml). This reagent mixture was mixed by inversion then incubated for 5 to 30 minutes at room temperature. It then was added to a solution of both expression vectors (5 μg each), mixed, and incubated at room temperature for about 20 minutes. HEK-293 cells were harvested from incubation flasks by removing the media, treating with TrypLE Express (Invitrogen), and incubating until the cells detached from the bottom of the flask (approximately 2-5 minutes). 10 Million cells were collected by centrifugation and re-suspended in 10 mL of Dulbecco's Modified Eagle Medium, High Glucose (DMEM, Invitrogen) containing 10% Fetal Bovine Serum and 100 IU each of penicillin and streptomycin. The re-suspended cells and the transfection mixture were added to a T75 flask, mixed and incubated overnight at 37° C. and 5% CO2.
The cells were harvested as described above, counted, and centrifuged to obtain the desired number of cells, then re-suspended in complete growth media at 0.75×10^6 cells/mL. The RORγ antagonist, ursolic acid, was added to the cells at a final concentration of 2 μM. Cells were plated at 20 μL of cell suspension/well (10,000-15,000 cells/well) in white tissue culture treated 384 well plates. Test compounds were dissolved at 10 mM in DMSO then diluted into complete growth medium to 5× the final intended test concentration. These drug stock solutions, 5 μL/well were added to the tissue culture plate. The final DMSO concentration was 0.2%. The plates were briefly centrifuged then incubated overnight at 37° C. and 5% CO2. To conduct the assay, the tissue culture plates were allowed to equilibrate to room temperature and One-Glo luciferase reagent (Promega, 25 μL/well) was added. The plates were briefly centrifuged then incubated at room temperature for 10 minutes. The luciferase intensity was read on an Envision plate reader (Perkin Elmer). RORγ activity was determined relative to controls and plotted as a function of test compound concentration using PRISM (GraphPad) to determine a 50% effective concentration (EC50). The luciferase signal in the absence of ursolic acid or test compound is defined at 100. The Max Response is the upper plateau in the signal as determined by line-fit using a 4-parameter logistic model in PRISM (GraphPad).

Structure (SMILES)	pEC50 (RORγ-LBD)	pEC50 (Gal4-RORγ-LBD)	TR-FRET Assay Max Response (RORγ-LBD)	Ga14-RORγ Assay Max Response (Gal4-RORγ-LBD)
C/C(=C\c1ccc2c(c1)N(S(=O)(=O)c1cccc(C(F)(F)F)c1)C[C@H](Cc1n[nH]c(=O)o1)O2)c1c(F)cccc1Cl	> 7.00	5.30 to 7.00	*** (a value in the range of greater than 150 to 200)	* (a value in the range of 40 to 90)
C/C(=C\c1ccc2c(c1)N(S(=O)(=O)c1cccc(OC(F)F)c1)C[C@H](CCOc1noc(=O)[nH]1)O2)c1c(F)cccc1Cl	> 7.00	5.30 to 7.00	*** (a value in the range of greater than 150 to 200)	** (a value in the range of greater than 90 to 150)
C/C(=C\c1ccc2c(c1)N(S(=O)(=O)c1cccc(C(F)(F)F)c1)C[C@H](CCn1cccn1)O2)c1c(F)cccc1Cl	> 7.00	5.30 to 7.00	*** (a value in the range of greater than 150 to 200)	** (a value in the range of greater than 90 to 150)
C/C(=C\c1ccc2c(c1)N(S(=O)(=O)c1cccc(C(F)(F)F)c1)C[C@H](CCn1ccnc1)O2)c1c(F)cccc1Cl	> 7.00	5.30 to 7.00	*** (a value in the range of greater than 150 to 200)	** (a value in the range of greater than 90 to 150)
O=c1[nH]nc(CC[C@H]2CN(S(=O)(=O)c3cccc(C(F)(F)F)c3)c3cc(/C=C/c4c(Cl)cccc4C(F)(F)F)ccc3O2)o1	> 7.00	5.30 to 7.00	*** (a value in the range of greater than 150 to 200)	** (a value in the range of greater than 90 to 150)
COc1cc(S(=O)(=O)N2C[C@H](CCc3n[nH]c(=O)o3)Oc3ccc(/C=C(\C)c4c(F)cccc4Cl)cc32)ccc1F	> 7.00	5.30 to 7.00	** (a value in the range of greater than 90 to 150)	** (a value in the range of greater than 90 to 150)
CCOc1nn(CC)cc1S(=O)(=O)N1C[C@H](CCc2n[nH]c(=O)o2)Oc2ccc(/C=C/c3c(Cl)cccc3C(F)(F)F)cc21	> 7.00	5.30 to 7.00	**** (a value greater than 200)	** (a value in the range of greater than 90 to 150)
CCOc1nn(CC)cc1S(=O)(=O)N1C[C@H](CCc2n[nH]c(=O)o2)Oc2ccc(/C=C(\C)c3c(F)cccc3Cl)cc21	> 7.00	5.30 to 7.00	*** (a value in the range of greater than 150 to 200)	*** (a value in the range of greater than 150 to 200)

Further lines, with some results ahead:

pEC50 (RORγ-LBD)	pEC50 (Gal4-RORγ-LBD)	Structure (SMILES)	TR-FRET Assay Max Response (RORγ-LBD)	Ga14-RORγ Assay Max Response (Gal4-RORγ-LBD)
5.30 to 7.00	5.30 to 7.00	C[C@@H]1[C@H](n2cc[nH]c2=O)Cc2ccc(/C=C/c3c(F)cccc3C(F)(F)F)cc2N1S(=O)(=O)c1cccc(C(F)(F)F)c1	*** (a value in the range of greater than 150 to 200)	** (a value in the range of greater than 90 to 150)
> 7.00	5.30 to 7.00	C/C(=C\c1ccc2c(c1)N(S(=O)(=O)c1cc(Cl)cnc1OCCO)C[C@H](CCc1n[nH]c(=O)o1)O2)c1c(F)cccc1Cl	**** (a value greater than 200)	** (a value in the range of greater than 90 to 150)
> 7.00	5.30 to 7.00	C/C(=C\c1ccc2c(c1)N(S(=O)(=O)c1cccc(C(F)(F)F)c1)C[C@H](CCc1nn[nH]n1)O2)c1c(F)cccc1Cl	*** (a value in the range of greater than 150 to 200)	*** (a value in the range of greater than 150 to 200)
> 7.00	5.30 to 7.00	CCn1cc(S(=O)(=O)N2C[C@H](CCOc3noc(=O)[nH]3)Oc3ccc(/C=C(\C)c4c(F)cccc4Cl)cc32)c(Cl)n1	*** (a value in the range of greater than 150 to 200)	*** (a value in the range of greater than 150 to 200)
5.30 to 7.00	5.30 to 7.00	C/C(=C\c1ccc2c(c1)N(S(=O)(=O)c1cccc(C(F)(F)F)c1)C[C@H](CCCc1nn[nH]n1)O2)c1c(F)cccc1Cl	*** (a value in the range of greater than 150 to 200)	** (a value in the range of greater than 90 to 150)
> 7.00	5.30 to 7.00	C/C(=C\c1ccc2c(c1)N(S(=O)(=O)c1cccc(C(F)(F)F)c1)C[C@H](CCn1cc(C(=O)O)nn1)O2)c1c(F)cccc1Cl	*** (a value in the range of greater than 150 to 200)	*** (a value in the range of greater than 150 to 200)
> 7.00	5.30 to 7.00	C/C(=C\c1ccc2c(c1)N(S(=O)(=O)c1cccc(C(F)(F)F)c1)C[C@H](CCCn1cccn1)O2)c1c(F)cccc1Cl	*** (a value in the range of greater than 150 to 200)	** (a value in the range of greater than 90 to 150)
> 7.00	5.30 to 7.00	CCn1cc(S(=O)(=O)N2C[C@H](CCc3n[nH]c(=O)o3)Oc3ccc(/C=C(\C)c4c(F)cccc4Cl)cc32)c(OCCO)n1	**** (a value greater than 200)	** (a value in the range of greater than 90 to 150)
5.30 to 7.00	5.30 to 7.00	C/C(=C\c1ccc2c(c1)N(S(=O)(=O)c1cccc(C(F)(F)F)c1)C[C@H](CCCc1noc(=O)[nH]1)O2)c1c(F)cccc1Cl	*** (a value in the range of greater than 150 to 200)	** (a value in the range of greater than 90 to 150)
> 7.00	5.30 to 7.00	C/C(=C\c1ccc2c(c1)N(S(=O)(=O)c1cccc(C(F)(F)F)c1)[C@H](C)[C@H](Cn1cccn1)C2)c1c(F)cccc1Cl	*** (a value in the range of greater than 150 to 200)	** (a value in the range of greater than 90 to 150)
> 7.00	5.30 to 7.00	CCOc1ncc(Cl)cc1S(=O)(=O)N1C[C@H](CCc2n[nH]c(=O)o2)Oc2ccc(/C=C(\C)c3c(F)cccc3Cl)cc21	*** (a value in the range of greater than 150 to 200)	** (a value in the range of greater than 90 to 150)
